Reference: ChEMBL document CHEMBL5230122, “Natural products and other inhibitors of F1FO ATP synthase” (Eur J Med Chem, 2020)
One block for each compound: values may come before it.

What was measured:
Type in all cases: functional, cell-based
P388 [1] = assay: Anticancer activity against mouse P388 cells assessed as reduction in cell viability incubated for 96 hrs by MTT assay; conditions: P388, 96 h
MCF7 [2] = assay: Anticancer activity against human MCF7 cells assessed as reduction in cell viability incubated for 48 hrs by sulforhodamine B (SRB) assay; conditions: MCF7, 48 h
P388 [3] = assay: Anticancer activity against mouse P388 cells assessed as reduction in cell viability incubated for 48 hrs by sulforhodamine B (SRB) assay; conditions: P388, 48 h
SK-OV-3 [4] = assay: Cytotoxicity against human SK-OV-3 cells assessed as reduction in cell viability incubated for 72 hrs by WST-8 assay; conditions: SK-OV-3, 72 h
[5] = Cytotoxicity against human ACC-MESO-1 cells assessed as reduction in cell viability incubated for 72 hrs by WST-8 assay; conditions: ACC-MESO-1, 72 h
Jurkat [6] = assay: Cytotoxicity against human Jurkat cells assessed as reduction in cell viability incubated for 72 hrs by WST-8 assay
LoVo = assay: Anticancer activity against human LoVo cells assessed as reduction in cell viability incubated for 72 hrs by CCK-8 assay
KB 3-1 = assay: Anticancer activity against human KB-3-1 cells assessed as reduction in cell viability incubated for 72 hrs by CellTiter-Glo luminescent cell viability assay; conditions: KB 3-1, 72 h
U-937 = assay: Anticancer activity against human U-937 cells assessed as reduction in cell viability incubated for 72 hrs by CellTiter-Glo luminescent cell viability assay; conditions: U-937, 72 h
SK-OV-3 [7] = assay: Anticancer activity against human SK-OV-3 cells assessed as reduction in cell viability incubated for 72 hrs by CellTiter-Glo luminescent cell viability assay; conditions: SK-OV-3, 72 h
HL-60 = assay: Anticancer activity against human HL-60 cells assessed as reduction in cell viability incubated for 72 hrs by CCK-8 assay; conditions: HL-60, 72 h
MCF7 [8] = assay: Anticancer activity against human MCF7 cells assessed as reduction in cell viability incubated for 72 hrs by CCK-8 assay; conditions: MCF7, 72 h
SW480 = assay: Anticancer activity against human SW480 cells assessed as reduction in cell viability incubated for 72 hrs by CellTiter-Glo luminescent cell viability assay; conditions: SW480, 72 h
NCI-H1299 = assay: Anticancer activity against human NCI-H1299 cells assessed as reduction in cell viability incubated for 72 hrs by CCK-8 assay; conditions: NCI-H1299, 72 h
HCT-116 [9] = assay: Anticancer activity against human HCT-116 cells assessed as reduction in cell viability incubated for 72 hrs by CellTiter-Glo luminescent cell viability assay; conditions: HCT-116, 72 h
Jurkat [10] = assay: Anticancer activity against human Jurkat cells assessed as reduction in cell viability incubated for 72 hrs by CellTiter-Glo luminescent cell viability assay
[11] = Anticancer activity against rat E1A-3Y1-2 cells assessed as reduction in cell viability incubated for 72 hrs by MTT assay; conditions: E1A-3Y1-2, 72 h
[12] = Anticancer activity against rat Ad12-3Y1-Z19 cells assessed as reduction in cell viability incubated for 72 hrs by MTT assay; conditions: Ad12-3Y1-Z19, 72 h
HeLa S3 = assay: Anticancer activity against human HeLa S3 cells assessed as reduction in cell viability incubated for 48 hrs by WST-8 assay; conditions: HeLa S3, 48 h
[13] = Anticancer activity against rat Ad12-3Y1-W5 cells assessed as reduction in cell viability incubated for 72 hrs by MTT assay; conditions: Ad12-3Y1-W5, 72 h
[14] = Anticancer activity against rat E1A-3Y1-1 cells assessed as reduction in cell viability incubated for 72 hrs by MTT assay; conditions: E1A-3Y1-1, 72 h
[15] = Anticancer activity against rat Ad12-3Y1-Z13 cells assessed as reduction in cell viability incubated for 72 hrs by MTT assay; conditions: Ad12-3Y1-Z13, 72 h
[16] = Anticancer activity against rat E1A-3Y1-3 cells assessed as reduction in cell viability incubated for 72 hrs by MTT assay; conditions: E1A-3Y1-3, 72 h
[17] = Anticancer activity against rat Ad12-3Y1-Z11 cells assessed as reduction in cell viability incubated for 72 hrs by MTT assay; conditions: Ad12-3Y1-Z11, 72 h
[18] = Antitumor activity against mouse RIL-175 cells assessed as reduction in cell viability incubated for 48 hrs by MTT assay; conditions: RIL-175, 48 h
HCT-116 [19] = assay: Antitumor activity against human HCT-116 cells assessed as reduction in cell viability incubated for 48 hrs by MTT assay; conditions: HCT-116, 48 h
Huh-7 = assay: Antitumor activity against human Huh-7 cells assessed as reduction in cell viability incubated for 48 hrs by MTT assay; conditions: Huh-7, 48 h
A549 = assay: Antitumor activity against human A549 cells assessed as reduction in cell viability incubated for 48 hrs by MTT assay; conditions: A549, 48 h
MCF7 [20] = assay: Antitumor activity against human MCF7 cells assessed as reduction in cell viability incubated for 48 hrs by MTT assay; conditions: MCF7, 48 h

Compound: CC[C@H](C)[C@@H]1NC(=O)[C@H](NC(=O)[C@H](C)NC(=S)[C@H](C)NC(=S)[C@H](C)NC(=S)[C@H](C)NC(=S)[C@H](CCSC)NC(=S)[C@@H](NC(=O)C(C)O)C(C)C)CS/C=C\NC(=O)[C@H]([C@@H](O)c2cn(C)c[n+]2C)NC(=O)[C@H](CC(C)C)NC(=O)[C@H](C)NC1=O (some centres undefined)
IC50 (SK-OV-3 [4]): 10800 nM | IC50 [5]: 14300 nM | IC50 (Jurkat [6]): 5400 nM

Compound: CC(=O)C(=O)N[C@H](C(=S)N[C@@H](CC[S+](C)[O-])C(=S)N[C@@H](C)C(=O)N[C@@H](C)C(=S)N[C@@H](C)C(=S)N[C@@H](C)C(=O)N[C@H]1C(=O)N[C@@H](C(C)C)C(=O)N[C@@H](C)C(=O)N[C@@H](Cc2ccccc2)C(=O)N[C@@H](C(O)c2cn(C)c[n+]2C)C(=O)N/C=C\SC1C)C(C)C (some centres undefined)
IC50 (LoVo): 1180 nM | IC50 (KB 3-1): 4490 nM | IC50 (U-937): 16900 nM | IC50 (SK-OV-3 [7]): 20900 nM | IC50 (HL-60): 1470 nM | IC50 (MCF7 [8]): 830 nM | IC50 (SW480): 12200 nM | IC50 (NCI-H1299): 5020 nM | IC50 (HCT-116 [9]): 510 nM | IC50 (Jurkat [10]): 5280 nM

Compound: CSCC[C@H](NC(=S)[C@@H](NC(=O)C(C)=O)C(C)C)C(=S)N[C@@H](C)C(=O)N[C@@H](C)C(=S)N[C@@H](C)C(=S)N[C@@H](C)C(=O)N[C@H]1C(=O)N[C@@H](C(C)C)C(=O)N[C@@H](C)C(=O)N[C@@H](Cc2ccccc2)C(=O)N[C@@H](C(O)c2cn(C)c[n+]2C)C(=O)N/C=C\SC1C (some centres undefined)
IC50 [18]: 157 nM | IC50 (HCT-116 [19]): 176 nM | IC50 (Huh-7): 141 nM | IC50 (A549): 1160 nM | IC50 (MCF7 [20]): 480 nM

Continued, in another order:

IC50 (P388 [1]): 0.51 nM | IC50 (MCF7 [2]): 10 nM | IC50 (P388 [3]): 10 nM
Compound: CC/C(C)=C(\NC(=O)[C@@H](NC(=O)CC(=O)[C@@H](C)CC(C)C)[C@](C)(O)CC)C(=O)N[C@@H](C)C(=O)N/C(C(=O)N[C@@H](C(=O)N[C@@H](C(=O)N[C@@H](C(=O)N[C@H](C(=O)N/C(C(=O)N[C@H](C)C(=O)N[C@@H](C(=O)N[C@H](C(=O)NC(C(=O)N[C@H](CN(C)C)C(C)C)=C(C)C)C(C)C)C(C)C)=C(\C)CC)C(C)(C)O)C(C)(C)O)[C@@H](C)CC)C(C)C)=C(\C)CC

IC50 (HeLa S3): 360 nM
Compound: CC[C@H](C)[C@@H]1NC(=O)[C@H](NC(=O)[C@H](C)NC(=S)[C@H](C)NC(=S)[C@H](C)NC(=S)[C@H](C)NC(=S)[C@H](CCSC)NC(=S)[C@@H](NC(=O)C(C)=O)C(C)C)CS/C=C\NC(=O)[C@H](C(O)c2cn(C)c[n+]2C)NC(=O)[C@H](CC(C)C)NC(=O)[C@H](C)NC1=O (some centres undefined)
IC50 [11]: 21 nM | IC50 [12]: 16 nM | IC50 [13]: 16 nM | IC50 [14]: 21 nM | IC50 [15]: 16 nM | IC50 [16]: 21 nM | IC50 [17]: 16 nM
